In patent US20090099237A1, “Methods of treating inflammatory diseases” (Roche Palo Alto LLC, priority 2007, published 2009):
pIC50: −log10 of the molar value. Read-outs that look alike come from different tables or passages of the source.

Columns and labels:
CK1α = biological target: T1, CK1α (Homo sapiens, UniProt P48729); experiment: In vitro kinase assay (33P, peptide substrate); format: biochemical
T1 construct: purchased Invitrogen

CK1δ = biological target: T2, CK1δ (Homo sapiens, UniProt P48730); experiment: In vitro kinase assay (33P, peptide substrate); format: biochemical
T2 construct: purchased Upstate

CK1γ1 = biological target: T3, CK1γ1 (Homo sapiens, UniProt Q9HCP0); experiment: In vitro kinase assay (33P, peptide substrate); format: biochemical
T3 construct: purchased Invitrogen

AMPK-alpha1 = biological target: T4, AMPK-alpha1 (Homo sapiens, UniProt Q13131); experiment: KinomeScan kinase profiling; format: binding; conditions: 10 μM
T4 construct: purchased Ambit Biosciences

AURKA = biological target: T5, AURKA (Homo sapiens, UniProt O14965); experiment: KinomeScan kinase profiling; format: binding; conditions: 10 μM
T5 construct: purchased Ambit Biosciences

BRAF(V600E) = biological target: T6, BRAF(V600E) (Homo sapiens, UniProt P15056, V600E); experiment: KinomeScan kinase profiling; format: binding; conditions: 10 μM
T6 construct: purchased Ambit Biosciences

CDK5 = biological target: T7, CDK5 (Homo sapiens, UniProt Q00535); experiment: KinomeScan kinase profiling; format: binding; conditions: 10 μM
T7 construct: purchased Ambit Biosciences (San Diego, Calif.)

CLK2 = biological target: T8, CLK2 (Homo sapiens, UniProt P49760); experiment: KinomeScan kinase profiling; format: binding; conditions: 10 μM
T8 construct: purchased Ambit Biosciences (San Diego, Calif.)

CSNK1E = biological target: T9, CSNK1E (Homo sapiens, UniProt P49674); experiment: KinomeScan kinase profiling; format: binding; conditions: 10 μM
T9 construct: purchased Ambit Biosciences (San Diego, Calif.)

EPHA2 = biological target: T10, EPHA2 (Homo sapiens, UniProt P29317); experiment: KinomeScan kinase profiling; format: binding; conditions: 10 μM
T10 construct: purchased Ambit Biosciences (San Diego, Calif.)

EPHA3 = biological target: T11, EPHA3 (Homo sapiens, UniProt P29320); experiment: KinomeScan kinase profiling; format: binding; conditions: 10 μM
T11 construct: purchased Ambit Biosciences (San Diego, Calif.)

FGFR2 = biological target: T12, FGFR2 (Homo sapiens, UniProt P21802); experiment: KinomeScan kinase profiling; format: binding; conditions: 10 μM
T12 construct: purchased Ambit Biosciences

JAK2(Kin.Dom2) = biological target: T13, JAK2(Kin.Dom2) (Homo sapiens, UniProt O60674); experiment: KinomeScan kinase profiling; format: binding; conditions: 10 μM
T13 construct: JAK2(Kin.Dom2); purchased Ambit Biosciences

LCK = biological target: T14, LCK (Homo sapiens, UniProt P06239); experiment: KinomeScan kinase profiling; format: binding; conditions: 10 μM
T14 construct: purchased Ambit Biosciences

p38-beta = p38-beta (Homo sapiens, UniProt Q15759); experiment: KinomeScan kinase profiling; format: binding; conditions: 10 μM
PAK4 = PAK4 (Homo sapiens, UniProt O96013); experiment: KinomeScan kinase profiling; format: binding; conditions: 10 μM
PCTK1 = PCTK1 (Homo sapiens, UniProt Q00536); experiment: KinomeScan kinase profiling; format: binding; conditions: 10 μM
PHKG1 = PHKG1 (Homo sapiens, UniProt Q16816); experiment: KinomeScan kinase profiling; format: binding; conditions: 10 μM
PKAC-alpha = biological target: T15, PKAC-alpha (Homo sapiens, UniProt P17612); experiment: KinomeScan kinase profiling; format: binding; conditions: 10 μM
T15 construct: purchased Ambit Biosciences

PTK6 = biological target: T16, PTK6 (Homo sapiens, UniProt Q13882); experiment: KinomeScan kinase profiling; format: binding; conditions: 10 μM
T16 construct: purchased Ambit Biosciences

STK3 = biological target: T17, STK3 (Homo sapiens, UniProt Q13188); experiment: KinomeScan kinase profiling; format: binding; conditions: 10 μM
T17 construct: purchased Ambit Biosciences

STK4 = biological target: T18, STK4 (Homo sapiens, UniProt Q13043); experiment: KinomeScan kinase profiling; format: binding; conditions: 10 μM
T18 construct: purchased Ambit Biosciences
T18 sequence (Q13043 whole entry): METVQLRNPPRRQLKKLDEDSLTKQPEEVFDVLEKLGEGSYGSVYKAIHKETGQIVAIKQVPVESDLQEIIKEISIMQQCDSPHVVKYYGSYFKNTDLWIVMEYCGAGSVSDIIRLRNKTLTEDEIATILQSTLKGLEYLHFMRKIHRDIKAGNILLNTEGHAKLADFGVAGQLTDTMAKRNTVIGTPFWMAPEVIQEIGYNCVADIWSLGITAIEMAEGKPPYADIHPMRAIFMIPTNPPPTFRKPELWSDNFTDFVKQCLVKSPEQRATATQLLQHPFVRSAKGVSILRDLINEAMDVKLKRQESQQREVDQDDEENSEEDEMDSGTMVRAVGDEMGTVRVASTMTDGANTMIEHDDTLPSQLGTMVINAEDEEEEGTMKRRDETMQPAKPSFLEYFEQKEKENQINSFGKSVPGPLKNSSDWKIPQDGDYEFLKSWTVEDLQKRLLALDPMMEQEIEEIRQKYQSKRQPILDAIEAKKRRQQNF

T13 sequence (O60674 849-1124 limits assumed): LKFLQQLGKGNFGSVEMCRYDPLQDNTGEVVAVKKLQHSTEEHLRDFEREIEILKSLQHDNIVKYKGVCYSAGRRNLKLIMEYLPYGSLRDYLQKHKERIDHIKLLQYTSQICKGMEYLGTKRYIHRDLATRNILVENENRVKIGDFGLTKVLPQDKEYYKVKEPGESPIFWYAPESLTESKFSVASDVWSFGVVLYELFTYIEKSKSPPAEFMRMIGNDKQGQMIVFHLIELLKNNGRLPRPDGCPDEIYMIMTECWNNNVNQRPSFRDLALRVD
Sequence of PHKG1 (Q16816 whole entry): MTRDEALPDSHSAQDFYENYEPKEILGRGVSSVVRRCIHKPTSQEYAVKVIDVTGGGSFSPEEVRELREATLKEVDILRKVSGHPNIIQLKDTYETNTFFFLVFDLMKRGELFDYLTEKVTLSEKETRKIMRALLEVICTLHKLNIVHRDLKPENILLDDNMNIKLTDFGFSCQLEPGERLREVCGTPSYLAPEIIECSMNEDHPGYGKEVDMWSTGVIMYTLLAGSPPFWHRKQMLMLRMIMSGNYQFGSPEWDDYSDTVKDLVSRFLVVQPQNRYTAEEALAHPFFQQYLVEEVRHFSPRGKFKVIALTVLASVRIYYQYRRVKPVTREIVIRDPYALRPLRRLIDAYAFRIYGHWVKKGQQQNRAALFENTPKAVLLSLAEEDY
T14 sequence (P06239 whole entry): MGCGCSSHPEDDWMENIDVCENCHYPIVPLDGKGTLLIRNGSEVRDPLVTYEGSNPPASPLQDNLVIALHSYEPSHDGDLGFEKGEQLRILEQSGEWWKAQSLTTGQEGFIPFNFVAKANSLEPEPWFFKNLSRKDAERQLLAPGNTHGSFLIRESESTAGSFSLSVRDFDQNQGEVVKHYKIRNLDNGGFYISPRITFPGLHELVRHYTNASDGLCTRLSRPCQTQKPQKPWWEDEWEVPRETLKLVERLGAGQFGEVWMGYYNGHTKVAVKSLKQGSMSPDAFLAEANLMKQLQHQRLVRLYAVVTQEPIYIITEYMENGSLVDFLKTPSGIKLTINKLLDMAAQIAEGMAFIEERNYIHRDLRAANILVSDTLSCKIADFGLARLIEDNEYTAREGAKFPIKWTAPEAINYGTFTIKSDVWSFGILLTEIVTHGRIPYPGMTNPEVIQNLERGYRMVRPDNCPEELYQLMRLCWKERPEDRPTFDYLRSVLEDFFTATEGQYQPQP
T6 sequence (P15056 whole entry V600E): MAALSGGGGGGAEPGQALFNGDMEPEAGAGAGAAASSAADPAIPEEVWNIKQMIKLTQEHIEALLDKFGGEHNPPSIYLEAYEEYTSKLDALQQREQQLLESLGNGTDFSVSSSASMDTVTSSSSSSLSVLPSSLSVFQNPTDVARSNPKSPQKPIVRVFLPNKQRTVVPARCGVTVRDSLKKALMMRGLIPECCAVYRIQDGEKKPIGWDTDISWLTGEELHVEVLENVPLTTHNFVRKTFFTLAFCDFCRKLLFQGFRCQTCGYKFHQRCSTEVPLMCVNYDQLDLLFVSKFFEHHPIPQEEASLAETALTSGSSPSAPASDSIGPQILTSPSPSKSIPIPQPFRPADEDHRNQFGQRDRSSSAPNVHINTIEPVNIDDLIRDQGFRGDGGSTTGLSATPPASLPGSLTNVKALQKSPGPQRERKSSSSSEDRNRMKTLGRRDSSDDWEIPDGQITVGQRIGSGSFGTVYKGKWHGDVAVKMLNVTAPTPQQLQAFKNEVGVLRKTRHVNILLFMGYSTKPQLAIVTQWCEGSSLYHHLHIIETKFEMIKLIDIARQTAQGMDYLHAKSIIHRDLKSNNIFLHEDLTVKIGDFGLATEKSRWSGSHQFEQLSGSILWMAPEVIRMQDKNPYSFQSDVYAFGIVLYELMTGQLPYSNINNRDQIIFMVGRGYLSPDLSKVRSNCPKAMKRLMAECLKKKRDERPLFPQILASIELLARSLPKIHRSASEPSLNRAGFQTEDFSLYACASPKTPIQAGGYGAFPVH
T9 sequence (P49674 whole entry): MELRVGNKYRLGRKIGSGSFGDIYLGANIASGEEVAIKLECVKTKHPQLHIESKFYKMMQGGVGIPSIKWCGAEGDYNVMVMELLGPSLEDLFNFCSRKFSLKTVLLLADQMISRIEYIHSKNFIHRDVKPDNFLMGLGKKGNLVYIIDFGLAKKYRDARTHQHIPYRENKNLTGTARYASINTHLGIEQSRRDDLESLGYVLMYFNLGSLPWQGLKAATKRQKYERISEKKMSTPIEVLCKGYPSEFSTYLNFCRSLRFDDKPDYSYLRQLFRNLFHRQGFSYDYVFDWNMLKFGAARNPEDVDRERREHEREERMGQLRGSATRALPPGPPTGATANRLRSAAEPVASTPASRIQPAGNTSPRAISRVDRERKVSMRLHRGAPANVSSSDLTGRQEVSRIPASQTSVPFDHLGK
Sequence of p38-beta (Q15759 whole entry): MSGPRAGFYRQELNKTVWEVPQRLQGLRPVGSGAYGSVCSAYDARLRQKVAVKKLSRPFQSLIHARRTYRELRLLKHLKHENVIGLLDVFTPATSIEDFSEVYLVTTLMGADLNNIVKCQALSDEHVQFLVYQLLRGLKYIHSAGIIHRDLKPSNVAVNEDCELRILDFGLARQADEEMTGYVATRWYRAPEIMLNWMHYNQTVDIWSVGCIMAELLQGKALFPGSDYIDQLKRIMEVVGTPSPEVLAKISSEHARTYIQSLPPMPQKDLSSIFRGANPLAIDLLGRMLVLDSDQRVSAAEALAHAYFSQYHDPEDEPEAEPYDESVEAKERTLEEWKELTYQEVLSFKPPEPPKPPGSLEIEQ
T2 sequence (P48730 whole entry): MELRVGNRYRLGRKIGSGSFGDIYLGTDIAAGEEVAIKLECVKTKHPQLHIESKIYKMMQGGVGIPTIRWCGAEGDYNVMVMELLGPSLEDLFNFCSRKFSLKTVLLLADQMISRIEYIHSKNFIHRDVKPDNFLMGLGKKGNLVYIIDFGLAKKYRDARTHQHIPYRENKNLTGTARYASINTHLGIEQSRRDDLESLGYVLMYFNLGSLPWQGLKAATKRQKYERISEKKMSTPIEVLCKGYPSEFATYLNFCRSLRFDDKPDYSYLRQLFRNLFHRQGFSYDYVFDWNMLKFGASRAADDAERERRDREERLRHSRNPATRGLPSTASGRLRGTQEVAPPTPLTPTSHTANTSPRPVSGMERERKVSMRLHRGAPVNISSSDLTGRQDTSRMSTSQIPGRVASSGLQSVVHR
T1 sequence (P48729 whole entry): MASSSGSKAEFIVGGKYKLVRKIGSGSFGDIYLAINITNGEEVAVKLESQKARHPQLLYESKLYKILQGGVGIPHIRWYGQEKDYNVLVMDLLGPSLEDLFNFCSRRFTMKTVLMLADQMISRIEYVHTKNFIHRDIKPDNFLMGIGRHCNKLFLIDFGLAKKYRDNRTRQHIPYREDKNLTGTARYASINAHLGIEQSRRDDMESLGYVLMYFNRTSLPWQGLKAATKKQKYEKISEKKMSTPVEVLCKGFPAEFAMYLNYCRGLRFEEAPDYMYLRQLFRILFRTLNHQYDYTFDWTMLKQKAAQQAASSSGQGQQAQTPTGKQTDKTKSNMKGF
T7 sequence (Q00535 whole entry): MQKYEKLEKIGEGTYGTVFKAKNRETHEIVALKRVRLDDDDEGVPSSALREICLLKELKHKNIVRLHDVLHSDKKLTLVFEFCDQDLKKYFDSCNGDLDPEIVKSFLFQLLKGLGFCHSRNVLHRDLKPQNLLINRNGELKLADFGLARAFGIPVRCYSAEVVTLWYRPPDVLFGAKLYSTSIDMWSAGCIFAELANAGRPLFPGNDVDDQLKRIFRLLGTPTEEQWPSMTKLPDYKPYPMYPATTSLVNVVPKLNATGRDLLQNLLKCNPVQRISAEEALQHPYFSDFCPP
T17 sequence (Q13188 whole entry): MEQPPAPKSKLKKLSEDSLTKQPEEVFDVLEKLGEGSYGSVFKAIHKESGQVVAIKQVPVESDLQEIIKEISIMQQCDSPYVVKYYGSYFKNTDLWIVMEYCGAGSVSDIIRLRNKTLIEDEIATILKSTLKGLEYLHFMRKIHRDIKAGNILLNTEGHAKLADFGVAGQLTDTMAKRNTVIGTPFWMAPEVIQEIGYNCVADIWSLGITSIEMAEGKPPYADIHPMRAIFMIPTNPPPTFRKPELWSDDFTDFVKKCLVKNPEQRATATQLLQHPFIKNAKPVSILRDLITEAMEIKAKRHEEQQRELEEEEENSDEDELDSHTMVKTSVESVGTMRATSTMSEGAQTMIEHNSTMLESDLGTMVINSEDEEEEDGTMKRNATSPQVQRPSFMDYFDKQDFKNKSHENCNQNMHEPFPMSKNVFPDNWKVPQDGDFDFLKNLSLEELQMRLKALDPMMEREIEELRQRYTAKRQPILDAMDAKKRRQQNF

Compound | % Binding (AMPK-alpha1) | % Binding (AURKA) | % Binding (BRAF(V600E)) | % Binding (CDK5) | % Binding (CLK2) | % Binding (CSNK1E) | % Binding (EPHA2) | % Binding (EPHA3) | % Binding (FGFR2) | % Binding (JAK2(Kin.Dom2)) | % Binding (LCK) | % Binding (p38-beta) | % Binding (PAK4) | % Binding (PCTK1) | % Binding (PHKG1) | % Binding (PKAC-alpha) | % Binding (PTK6) | % Binding (STK3) | % Binding (STK4) | further results
NC(=O)c1cc(-c2ccncc2)c[nH]1 [Compound A, 4-Pyridin-4-yl-1H-pyrrole-2-carboxylic acid amide] | <50% | <50% | <50% | <50% | <50% | 94% | <50% | <50% | <50% | <50% | <50% | <50% | <50% | <50% | <50% | <50% | <50% | <50% | <50% | pIC50 (CK1α; CK1α, 50 μM ATP, read-out: IC50): 5.92; pIC50 (CK1δ; CK1δ, 50 μM ATP, read-out: IC50): 5.12; pIC50 (CK1γ1; CK1γ1, 50 μM ATP, read-out: IC50): < 4.00
COc1cc(OC)c(C=C2C(O)=Nc3ccccc32)c(OC)c1 [IC261, 3-[(2,4,6-trimethoxyphenyl)methylidenyl]-indolin-2-one] | <50% | <50% | <50% | <50% | <50% | 100% | <50% | <50% | <50% | <50% | <50% | <50% | <50% | <50% | <50% | <50% | <50% | <50% | <50% | pIC50 (CK1α): 5.21; pIC50 (CK1δ): 5.82; pIC50 (CK1γ1): < 4.00
